This test deals with human conjunctival tissue mast cells. Briefly: Inhibition of anti-IgE induced histamine release from human conjunctival tissue mast cells (HCTMC). In kind it is cell-based. The protocol:
Methods detailing preparation of mono-dispersed HCTMC and mediator release studies with these cells have been described (U.S. Pat. No. 5,360,720 and Miller et al, Ocular Immunology and Inflammation, 4(1):39-49 (1996)). Briefly, human conjunctival tissue mast cells were isolated from post-mortem tissue donors obtained within 8 hours of death by various eye banks and transported in Dexsol® corneal preservation medium, or equivalent. Tissues were enzymatically digested by repeated exposure (30 min. at 37° C.) to collagenase and hyaluronidase (2× with 200 U each/gram tissue, then 2-4 × with 2000 U each/gram tissue) in Tyrode's buffer containing 0.1% gelatin. (Tyrode's buffer (in mM): 137 NaCl, 2.7 KCl, 0.35 NaH2PO4, 1.8 CaCl2, 0.98 MgCl2, 11.9 NaHCO3, and 5.5 glucose). Each digestion mixture was filtered over Nitex® cloth (100 μm mesh, Tetko, Briarcliff Manor, N.Y.) and washed with an equal volume of buffer. Filtrates were centrifuged at 825×g (7 min). Pellets were resuspended in buffer then combined for enrichment over a […] Percoll® cushion. The enriched pellet was washed, resuspended in supplemented RPMI 1640 medium and incubated at 37° C. to equilibrate.
Cells were harvested from the culture plate and counted for viability (trypan blue exclusion) and mast cell number (toluidine blue O). Mast cells (5000/tube; 1 mL final volume) were challenged (37° C.) for 15 min with goat-anti-human IgE (10 μg/mL) following treatment (15 minutes; 37° C.) with test drug or Tyrode's buffer. Total and non-specific release controls were exposed to 0.1% Triton X-100 and goat IgG (10 μg/mL), respectively. The reaction was terminated by centrifugation (500×g, 4° C., 10 min). Supernatants were stored at −20° C. until analyzed for histamine content by RIA (Beckman Coulter, Chicago, Ill.).
All test drugs were made to solution immediately prior to use. Each was dissolved in DMSO at 10 mM or greater concentration and then diluted in Tyrode's buffer containing 0.1% gelatin over the concentration for evaluation.
Inhibition of histamine release was determined by direct comparison of with anti-IgE challenged mast cells using Dunnett's t-test (Dunnett, “A multiple comparison procedure for comparing treatments with a control”, J. Amer. Stat. Assoc. (1955), 50:1096-1121).

Setting [1] is: Homo sapiens, Mast cell, bracketed value, apparently the mean of the individual determinations in the same cell, read-out: IC50(nM), value in square brackets.
Setting [2] is: goat-anti-human IgE 10 μg/mL challenge 15 min after 15 min drug treatment, individual determinations (values outside brackets), read-out: IC50.

“And” between values parts separate entries of the source, which are not always exact repeats. Equal entries are not always repeated. Where two headings read alike, the source gives them in different places.

As usually defined, the IC50 is the concentration needed to halve the response being measured. As for `O=C(NCCCN1CCOCC1)c1ccccc1SSc1ccccc1C(=O)NCCCN1CCOCC1` [Compound 2], the IC50 was 105 nM under setting [1]; 78 nM and 199 nM and 39 nM under setting [2].
On to `C=CCNC(=O)c1ccccc1SSc1ccccc1C(=O)NCC=C` [Compound 3], for which the IC50 under setting [1] turned out to be 148 nM.
In the case of `CNC(=O)c1ccccc1SSc1ccccc1C(=O)NC` [Compound 4], the IC50 under setting [1] worked out at 282 nM.
For `CC(O)CNC(=O)c1ccccc1SSc1ccccc1C(=O)NCC(C)O` (stereo not drawn) [Compound 5], the IC50 is, setting by setting: under setting [1], 122 nM; under setting [2], 107 nM and 219 nM and 229 nM and 84 nM and 71 nM.
`CNC(=O)c1cccc(SSc2cccc(C(=O)NC)c2)c1` [Compound 6]: the IC50 was determined as 402 nM (Homo sapiens, Mast cell, 0.25 h, goat-anti-human IgE 10 μg/mL challenge 15 min after 15 min drug treatment, individual determinations (values outside brackets), read-out: IC50); 312 nM under setting [1]; 222 nM under setting [2].
